Structures can show the parent of a compound that is named as a salt. Where two headings read alike, the source gives them in different places.
Key:
[1] = tested on: lung cancer cells (A549); conditions: lung mimicking model, FIG. 5A
Description: Then, gelation was allowed at room temperature for 15 minutes. Then, after coating with collagen (0.03 mg/ml, 1 VL content) (sigma, collagen type I solution) and fibronectin (0.001%, 5 mg) (Sigma, F0895) for two hours at 37° C., a total of 20 μl of 4×10^6/ml of HUVEC (LONZA, HUVEC-Umbil vein, Pooled cells) as vascular endothelial cells was added into one of the cell culture channels, the chip was raised at 90°, and the cells were cultured for one to two hours so as to be adhered in a direction of the gel layer formed in the middle. Then, put the chip down to its original state, replace the medium, and when the vascular endothelial cells form one blood vessel layer starting from the gel layer in the middle, a total of 20 μl of 1×10^6/ml lung cancer cells (A549) were put on the same layer, the chip was raised at 90° and cultured overnight so that the chip was attached in the direction of the gel layer formed in the middle. Then, the chip was put down again, the medium was replaced, and cultured for 5 days, and it was confirmed whether the lung cancer cells migrated to the middle gel layer. After that, the chip was put down to the original state again, the medium was replaced, the cells were cultured for five days, and whether the lung cancer cells migrated to the middle gel layer was checked. […]

[2] = tested on: lung cancer cells (A549); conditions: BBB mimicking model, FIG. 5B
Excerpt: In addition, the BBB mimicking model was manufactured in the same method of manufacturing the lung mimicking model, but astrocytes (Human Astrocytes) (ScienCell, #1800) were used instead of fibroblasts, human brain microvascular endothelial cells (HBMVEC) (Cell systems, ACBRI 376) were used instead of HUVECs as vascular endothelial cells, and the total culture periods were set to be different due to the difference in cell proliferation rates between the lung mimicking model and the BBB mimicking model. […] In the experimental method, as described in Example 1 above, blood vessel cells were treated with CD31, lung cancer cells were treated with cytokeratin 8, and the cells were photographed by using a confocal microscope, Carl Zeiss, LSM710.

c1cc(CN2CCCNCCNCCCNCC2)ccc1CN1CCCNCCNCCCNCC1 [AMD3100, AMD3100 (octahydrochloride)]
metastasis of lung cancer cells ([1]; 1 μg/ml and 5 μg/ml, treated for one day or six days, compared to the group to which AMD3100 is not treated, confocal microscope): generally reduced
metastasis suppression ([1]; 1 μg/ml treated for six days, compared among treatment groups): best metastasis suppression
metastasis of lung cancer cells ([2]; 1 μg/ml and 5 μg/ml, treated for one day or six days, confocal microscope): reduced more
metastasis suppression ([2]; 1 μg/ml treated for one day, compared among treatment groups): best metastasis suppression

Source: US20250198987A1, “SYSTEM FOR MEASURING METASTATIC POTENTIAL OF CANCER CELLS AND METHOD FOR MEASURING METASTATIC POTENTIAL OF CANCER CELLS BY USING SAME” (Seoul National University Hospital, priority 2020, published 2025)
